The numbers were not newly measured in patent publication US10221122B2, “Enantiospecific process for the preparation of (R) and (S) enantiomers of sex pheromonoes of the long tailed mealy bug” (Council of Scientific & Industrial Research, priority 2015, dated 2019), which cites them from elsewhere.

For data set [1], the system named is male mealybugs. As to conditions: attraction lasting three months; reported by Miller group.
Data set [2] deals with American cockroach. The following applies: J. Chem. Ecol. 1983, 9(3), 433-48.
For data set [3], the system named is males of the American cockroach. As to conditions: Agric. Biol. Chem. 1979, 43(9), 1967-1974.
The test system of data set [4] is male mealybugs. As to conditions: field trials; J. Org. Chem. 2013, 78, 6281-6284.

The structures appear in SMILES notation. Like-named read-outs stand apart in the source and are kept apart here.

Take `CC(=O)OCCC1(C)C=CCC1(C)C` (racemic) [racemic form of the pheromone]: the “amount sufficient to attract male mealybugs” value in data set [1] was 25 µg.

On to `CC(=O)OC1CC2CCC1(C)C2(C)C` (single isomer, unassigned; (+)) [(+)-bornyl acetate], for which, in data set [2] (at 0.05 mg), the sex pheromonal activity result is listed as “showed the activity”. For the same compound, the “excitation of males showing the typical sexual response” value in data set [3] is reported as “excite males of the American cockroach”. Consider `CCC(=O)OC1CC2CCC1(C)C2(C)C` (single isomer, unassigned; (-)) [(−)-bornyl propionate], for which the sex pheromonal activity result in data set [2] (at 0.5 mg dose) was “weak activity”.

Turning to `CC(=O)OCC[C@]1(C)C=CCC1(C)C` [(R)-(−)-enantiomer, 2-[(1R)-1,5,5-trimethylcyclopent-2-en-1-yl]ethyl acetate], the “attractiveness to male mealybugs” value in data set [4] is listed as “neither attractive nor inhibitory”. Take `CC(=O)OCC[C@@]1(C)C=CCC1(C)C` [(S)-(+)-enantiomer, 2-[(1S)-1,5,5-trimethylcyclopent-2-en-1-yl]ethyl acetate]: the “attractiveness to male mealybugs” value in data set [4] is “highly attractive”. As for `CCC(=O)OC1CC2CCC1(C)C2(C)C` (stereo not shown) [Ic], the sex pheromonal activity result in data set [2] (at 0.05 mg) is recorded as “showed the activity”.
